{"source": "PubChem BioAssay AID1963977", "about": "(Molecular Pharmacology Branch, DTP, NCI, 2024);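 also: spheroids exposed to agents for seven days before luminescence read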;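 as to viability, T/C: luminescent signal used as a stand-in for spheroid viability; percent viability relative to DMSO vehicle control wells taken as 100%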", "test_system": "624824-186-R-J3-PDC multicell spheroids, viability", "test": "Anticancer human tumor 624824-186-R-J3-PDC patient-derived colon adenocarcinoma cell line growth inhibition [PI3K]", "conditions": "for viability, T/C: stronger effect = lower value", "summary_of_the_method": "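Agents were dosed from a top concentration near clinical Cmax (otherwise 10 microM) in half-log decrements, alone or combined with PI3K inhibitors. The spheroids contain tumor cells plus endothelial (HUVEC) and MSC stroma; viability is measured.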", "key": {"[1]": {"conditions": "curve of first compound, second compound 0.0316 µM"}, "[2]": {"conditions": "curve of first compound, second compound 0.1 µM"}, "[3]": {"conditions": "curve of first compound, second compound 0.316 µM"}, "[4]": {"conditions": "curve of first compound, second compound 1 µM"}, "[5]": {"conditions": "second compound 0.0316 µM, first compound 0.0316 µM"}, "[6]": {"conditions": "second compound 0.0316 µM, first compound 0.1 µM"}, "[7]": {"conditions": "second compound 0.0316 µM, first compound 0.316 µM"}, "[8]": {"conditions": "second compound 0.0316 µM, first compound 1 µM"}, "[9]": {"conditions": "second compound 0.0316 µM, first compound 3.16 µM"}, "[10]": {"conditions": "second compound 0.0316 µM, first compound 10 µM"}, "[11]": {"conditions": "second compound 0.1 µM, first compound 0.0316 µM"}, "[12]": {"conditions": "second compound 0.1 µM, first compound 0.1 µM"}, "[13]": {"conditions": "second compound 0.1 µM, first compound 0.316 µM"}, "[14]": {"conditions": "second compound 0.1 µM, first compound 1 µM"}, "[15]": {"conditions": "second compound 0.1 µM, first compound 3.16 µM"}, "[16]": {"conditions": "second compound 0.1 µM, first compound 10 µM"}, "[17]": {"conditions": "second compound 0.316 µM, first compound 0.0316 µM"}, "[18]": {"conditions": "second compound 0.316 µM, first compound 0.1 µM"}, "[19]": {"conditions": "second compound 0.316 µM, first compound 0.316 µM"}, "[20]": {"conditions": "second compound 0.316 µM, first compound 1 µM"}, "[21]": {"conditions": "second compound 0.316 µM, first compound 3.16 µM"}, "[22]": {"conditions": "second compound 0.316 µM, first compound 10 µM"}, "[23]": {"conditions": "second compound 1 µM, first compound 0.0316 µM"}, "[24]": {"conditions": "second compound 1 µM, first compound 0.1 µM"}, "[25]": {"conditions": "second compound 1 µM, first compound 0.316 µM"}, "[26]": {"conditions": "second compound 1 µM, first compound 1 µM"}, "[27]": {"conditions": "second compound 1 µM, first compound 3.16 µM"}, "[28]": {"conditions": "second compound 1 µM, first compound 10 µM"}}}
{"smiles": "C[C@@H](NC(=O)c1ncnc(N)c1Cl)c1ncc(C(=O)Nc2cc(C(F)(F)F)c(Cl)cn2)s1", "note": "+ Cc1nc(NC(=O)N2CCCC2C(N)=O)sc1-c1ccnc(C(C)(C)C(F)(F)F)c1", "values": [{"measurement": "IC50", "setting": "[1]", "result": "> 10", "unit": "µM"}, {"measurement": "IC50", "setting": "[2]", "result": "> 10", "unit": "µM"}, {"measurement": "IC50", "setting": "[3]", "result": "> 10", "unit": "µM"}, {"measurement": "IC50", "setting": "[4]", "result": "> 10", "unit": "µM"}, {"measurement": "IC50", "setting": "curve of first compound, second compound 3.16 µM", "result": 4.57, "unit": "µM"}, {"measurement": "IC50", "setting": "curve of first compound, second compound 10 µM", "result": 0.66, "unit": "µM"}, {"measurement": "viability, T/C", "setting": "[5]", "result": 108, "unit": "%"}, {"measurement": "viability, T/C", "setting": "[6]", "result": 99.1, "unit": "%"}, {"measurement": "viability, T/C", "setting": "[7]", "result": 102, "unit": "%"}, {"measurement": "viability, T/C", "setting": "[8]", "result": 97, "unit": "%"}, {"measurement": "viability, T/C", "setting": "[9]", "result": 98.8, "unit": "%"}, {"measurement": "viability, T/C", "setting": "[10]", "result": 103, "unit": "%"}, {"measurement": "viability, T/C", "setting": "[11]", "result": 111, "unit": "%"}, {"measurement": "viability, T/C", "setting": "[12]", "result": 106, "unit": "%"}, {"measurement": "viability, T/C", "setting": "[13]", "result": 98.6, "unit": "%"}, {"measurement": "viability, T/C", "setting": "[14]", "result": 103, "unit": "%"}, {"measurement": "viability, T/C", "setting": "[15]", "result": 109, "unit": "%"}, {"measurement": "viability, T/C", "setting": "[16]", "result": 91, "unit": "%"}, {"measurement": "viability, T/C", "setting": "[17]", "result": 101, "unit": "%"}, {"measurement": "viability, T/C", "setting": "[18]", "result": 114, "unit": "%"}, {"measurement": "viability, T/C", "setting": "[19]", "result": 99, "unit": "%"}, {"measurement": "viability, T/C", "setting": "[20]", "result": 98.6, "unit": "%"}, {"measurement": "viability, T/C", "setting": "[21]", "result": 106, "unit": "%"}, {"measurement": "viability, T/C", "setting": "[22]", "result": 72.6, "unit": "%"}, {"measurement": "viability, T/C", "setting": "[23]", "result": 104, "unit": "%"}, {"measurement": "viability, T/C", "setting": "[24]", "result": 110, "unit": "%"}, {"measurement": "viability, T/C", "setting": "[25]", "result": 99.1, "unit": "%"}, {"measurement": "viability, T/C", "setting": "[26]", "result": 97.8, "unit": "%"}, {"measurement": "viability, T/C", "setting": "[27]", "result": 86.5, "unit": "%"}, {"measurement": "viability, T/C", "setting": "[28]", "result": 52.4, "unit": "%"}, {"measurement": "viability, T/C", "setting": "second compound 3.16 µM, first compound 0.0316 µM", "result": 91.5, "unit": "%"}, {"measurement": "viability, T/C", "setting": "second compound 3.16 µM, first compound 0.1 µM", "result": 85.5, "unit": "%"}, {"measurement": "viability, T/C", "setting": "second compound 3.16 µM, first compound 0.316 µM", "result": 82.7, "unit": "%"}, {"measurement": "viability, T/C", "setting": "second compound 3.16 µM, first compound 1 µM", "result": 75.8, "unit": "%"}, {"measurement": "viability, T/C", "setting": "second compound 3.16 µM, first compound 3.16 µM", "result": 59.1, "unit": "%"}, {"measurement": "viability, T/C", "setting": "second compound 3.16 µM, first compound 10 µM", "result": 30.7, "unit": "%"}, {"measurement": "viability, T/C", "setting": "second compound 10 µM, first compound 0.0316 µM", "result": 74.1, "unit": "%"}, {"measurement": "viability, T/C", "setting": "second compound 10 µM, first compound 0.1 µM", "result": 76.4, "unit": "%"}, {"measurement": "viability, T/C", "setting": "second compound 10 µM, first compound 0.316 µM", "result": 56, "unit": "%"}, {"measurement": "viability, T/C", "setting": "second compound 10 µM, first compound 1 µM", "result": 46.2, "unit": "%"}, {"measurement": "viability, T/C", "setting": "second compound 10 µM, first compound 3.16 µM", "result": 29.6, "unit": "%"}, {"measurement": "viability, T/C", "setting": "second compound 10 µM, first compound 10 µM", "result": 21.5, "unit": "%"}]}
{"smiles": "CC(Nc1ccc2c(c1)OCCn1cc(N3C(=O)OCC3C(F)F)nc1-2)C(N)=O", "note": "(stereo unspecified)", "values": [{"measurement": "viability, T/C", "setting": "compound 0.00316 µM", "result": "101% [middle of 7 runs]"}, {"measurement": "viability, T/C", "setting": "compound 0.01 µM", "result": "103% [middle of 7 runs]"}, {"measurement": "viability, T/C", "setting": "compound 0.0316 µM", "result": "108% [middle of 7 runs]"}, {"measurement": "viability, T/C", "setting": "compound 0.1 µM", "result": "109% [middle of 7 runs]"}, {"measurement": "viability, T/C", "setting": "compound 0.316 µM", "result": "100% [middle of 7 runs]"}, {"measurement": "viability, T/C", "setting": "compound 1 µM", "result": "88.5% [middle of 7 runs]"}, {"measurement": "IC50", "setting": "compound alone, run of 04/24/2023", "result": "> 1", "unit": "µM"}]}
{"smiles": "C[C@@H](NC(=O)c1ncnc(N)c1Cl)c1ncc(C(=O)Nc2cc(C(F)(F)F)c(Cl)cn2)s1", "note": "+ COc1c(OCCCN2CCOCC2)ccc2c3n(c(=NC(=O)c4cnc(N)nc4)nc12)CCN3", "values": [{"measurement": "IC50", "setting": "curve of first compound, second compound 0.00316 µM", "result": "> 10", "unit": "µM"}, {"measurement": "IC50", "setting": "curve of first compound, second compound 0.01 µM", "result": "> 10", "unit": "µM"}, {"measurement": "IC50", "setting": "[1]", "result": "> 10", "unit": "µM"}, {"measurement": "IC50", "setting": "[2]", "result": 4.44, "unit": "µM"}, {"measurement": "IC50", "setting": "[3]", "result": 0.538, "unit": "µM"}, {"measurement": "IC50", "setting": "[4]", "result": "< 0.0316", "unit": "µM"}, {"measurement": "viability, T/C", "setting": "second compound 0.00316 µM, first compound 0.0316 µM", "result": 108, "unit": "%"}, {"measurement": "viability, T/C", "setting": "second compound 0.00316 µM, first compound 0.1 µM", "result": 114, "unit": "%"}, {"measurement": "viability, T/C", "setting": "second compound 0.00316 µM, first compound 0.316 µM", "result": 109, "unit": "%"}, {"measurement": "viability, T/C", "setting": "second compound 0.00316 µM, first compound 1 µM", "result": 103, "unit": "%"}, {"measurement": "viability, T/C", "setting": "second compound 0.00316 µM, first compound 3.16 µM", "result": 99, "unit": "%"}, {"measurement": "viability, T/C", "setting": "second compound 0.00316 µM, first compound 10 µM", "result": 85.8, "unit": "%"}, {"measurement": "viability, T/C", "setting": "second compound 0.01 µM, first compound 0.0316 µM", "result": 107, "unit": "%"}, {"measurement": "viability, T/C", "setting": "second compound 0.01 µM, first compound 0.1 µM", "result": 97.9, "unit": "%"}, {"measurement": "viability, T/C", "setting": "second compound 0.01 µM, first compound 0.316 µM", "result": 95.6, "unit": "%"}, {"measurement": "viability, T/C", "setting": "second compound 0.01 µM, first compound 1 µM", "result": 96.2, "unit": "%"}, {"measurement": "viability, T/C", "setting": "second compound 0.01 µM, first compound 3.16 µM", "result": 92.5, "unit": "%"}, {"measurement": "viability, T/C", "setting": "second compound 0.01 µM, first compound 10 µM", "result": 80.2, "unit": "%"}, {"measurement": "viability, T/C", "setting": "[5]", "result": 91.3, "unit": "%"}, {"measurement": "viability, T/C", "setting": "[6]", "result": 103, "unit": "%"}, {"measurement": "viability, T/C", "setting": "[7]", "result": 91.5, "unit": "%"}, {"measurement": "viability, T/C", "setting": "[8]", "result": 99.1, "unit": "%"}, {"measurement": "viability, T/C", "setting": "[9]", "result": 76.8, "unit": "%"}, {"measurement": "viability, T/C", "setting": "[10]", "result": 52.1, "unit": "%"}, {"measurement": "viability, T/C", "setting": "[11]", "result": 88.2, "unit": "%"}, {"measurement": "viability, T/C", "setting": "[12]", "result": 82.1, "unit": "%"}, {"measurement": "viability, T/C", "setting": "[13]", "result": 78.3, "unit": "%"}, {"measurement": "viability, T/C", "setting": "[14]", "result": 76.9, "unit": "%"}, {"measurement": "viability, T/C", "setting": "[15]", "result": 54.1, "unit": "%"}, {"measurement": "viability, T/C", "setting": "[16]", "result": 38.5, "unit": "%"}, {"measurement": "viability, T/C", "setting": "[17]", "result": 54.4, "unit": "%"}, {"measurement": "viability, T/C", "setting": "[18]", "result": 60.6, "unit": "%"}, {"measurement": "viability, T/C", "setting": "[19]", "result": 59.2, "unit": "%"}, {"measurement": "viability, T/C", "setting": "[20]", "result": 41, "unit": "%"}, {"measurement": "viability, T/C", "setting": "[21]", "result": 28.5, "unit": "%"}, {"measurement": "viability, T/C", "setting": "[22]", "result": 23.1, "unit": "%"}, {"measurement": "viability, T/C", "setting": "[23]", "result": 32.9, "unit": "%"}, {"measurement": "viability, T/C", "setting": "[24]", "result": 31.5, "unit": "%"}, {"measurement": "viability, T/C", "setting": "[25]", "result": 31, "unit": "%"}, {"measurement": "viability, T/C", "setting": "[26]", "result": 25, "unit": "%"}, {"measurement": "viability, T/C", "setting": "[27]", "result": 20.3, "unit": "%"}, {"measurement": "viability, T/C", "setting": "[28]", "result": 14.8, "unit": "%"}]}
